Measured values from US20080171737A1 (Wyeth, priority 2006, published 2008).
Structures can show the parent of a compound that is named as a salt.

What follows are compounds tested against T1, human hNET (Homo sapiens, UniProt P23975) (assay: Functional norepinephrine reuptake assay, Procedure B (6,000 cells/well)). Settings: MDCK-Net6 cells, 6,000 cells/well, 16 nM 3H-norepinephrine; read-out: Procedure B hNET uptake IC50.
T1 construct: expressed in transfected cells; host or cells: MDCK-Net6 (MDCK cells stably transfected with hNET)
T1 sequence (P23975 whole entry): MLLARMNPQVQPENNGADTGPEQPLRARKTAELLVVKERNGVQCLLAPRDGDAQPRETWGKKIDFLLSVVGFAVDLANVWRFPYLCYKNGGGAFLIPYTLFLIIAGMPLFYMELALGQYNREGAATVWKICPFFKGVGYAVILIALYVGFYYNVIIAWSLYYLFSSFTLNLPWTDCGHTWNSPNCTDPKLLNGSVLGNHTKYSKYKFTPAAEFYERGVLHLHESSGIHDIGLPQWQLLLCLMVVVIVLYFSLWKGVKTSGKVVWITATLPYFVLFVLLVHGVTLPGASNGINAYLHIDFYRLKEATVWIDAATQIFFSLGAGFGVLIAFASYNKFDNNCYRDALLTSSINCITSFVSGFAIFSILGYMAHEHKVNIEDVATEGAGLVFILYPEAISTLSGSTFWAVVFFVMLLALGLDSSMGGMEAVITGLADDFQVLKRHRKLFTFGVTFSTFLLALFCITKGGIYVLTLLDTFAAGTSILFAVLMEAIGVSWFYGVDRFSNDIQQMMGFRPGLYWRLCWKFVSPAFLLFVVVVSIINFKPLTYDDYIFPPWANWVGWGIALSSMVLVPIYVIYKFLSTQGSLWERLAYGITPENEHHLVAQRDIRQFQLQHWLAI
Type: cell-based
Summary of the method: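 MDCK cells stably expressing human NET, 6,000 cells/well, in HEPES-buffered saline pH 7.4 with ascorbic acid and 1 μM pargyline; compound preincubated 5 min at 37° C. ^3H norepinephrine uptake counted by scintillation; non-specific defined with 20 μM desipramine. IC50 from variable-slope sigmoidal nonlinear fit.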

| IC50 | Structure (SMILES) |
| --- | --- |
| 0.0007 µM | CNCCCC1Oc2ccccc2N(c2ccccc2)S1(=O)=O (stereo not drawn) [Example 12, 3-(2,2-dioxido-1-phenyl-1H-4,2,1-benzoxathiazin-3-yl)-N-methylpropan-1-amine] |
| 0.0185 µM | CNCCCC1Cc2ccccc2N(c2ccccc2)S1(=O)=O (stereo not drawn) [Example 1, 3-(2,2-dioxido-1-phenyl-3,4-dihydro-1H-2,1-benzothiazin-3-yl)-N-methylpropan-1-amine] |
| 1.07 µM | O=S1(=O)C(CCCNC2CC2)Oc2ccccc2N1c1ccccc1 (stereo not drawn) [Example 40, N-[3-(2,2-dioxido-1-phenyl-1H-4,2,1-benzoxathiazin-3-yl)propyl]cyclopropanamine] |
| 0.142 µM | CNCCCC1Cc2cc(F)ccc2N(c2ccccc2C)S1(=O)=O (racemic) [Example 160, 3-[6-fluoro-1-(2-methylphenyl)-2,2-dioxido-3,4-dihydro-1H-2,1-benzothiazin-3-yl]-N-methylpropan-1-amine] |
| 0.238 µM | CNCCC[C@@H]1Cc2ccccc2N(c2cccnc2)S1(=O)=O (single isomer, unassigned) [Example 125] |
| 1.22 µM | CNCC[C@@H]1Oc2ccccc2N(c2ccccc2)S1(=O)=O (single isomer, unassigned) [Example 105] |
| 0.0179 µM | CNCCC[C@@H]1Cc2ccccc2N(c2ccccc2)S1(=O)=O (single isomer, unassigned) [Example 11] |
| 0.018 µM | CNCCCC1Cc2ccccc2N(c2ccccc2F)S1(=O)=O (stereo not drawn) [Example 89, 3-[1-(2-fluorophenyl)-2,2-dioxido-3,4-dihydro-1H-2,1-benzothiazin-3-yl]-N-methylpropan-1-amine] |
| 0.341 µM | CNCCC[C@@H]1Cc2cc(F)ccc2N(c2ccccc2OC)S1(=O)=O (single isomer, unassigned) [Example 168] |
| 0.156 µM | CNCCCC1Sc2ccccc2N(c2ccc(C)cc2)S1(=O)=O (stereo not drawn) [Example 63, N-methyl-3-[1-(4-methylphenyl)-2,2-dioxido-1H-2,4,1-benzodithiazin-3-yl]propan-1-amine Hydrochloride] |
| 0.0927 µM | CNCCCC1Oc2cc(F)ccc2N(c2ccccc2)S1(=O)=O (stereo not drawn) [Example 46, 3-(6-fluoro-2,2-dioxido-1-phenyl-1H-4,2,1-benzoxathiazin-3-yl)-N-methylpropan-1-amine] |
| 0.016 µM | CNCCC[C@@H]1Cc2cc(F)ccc2N(c2ccc(C)cc2F)S1(=O)=O (single isomer, unassigned) [Example 150] |
| 0.04 µM | CNCCC[C@H]1Cc2cc(F)ccc2N(c2cc(F)ccc2F)S1(=O)=O (single isomer, unassigned) [Example 152] |
| 0.338 µM | CNCCCC1Sc2ccccc2N(c2cccc(OC)c2)S1(=O)=O (stereo not drawn) [Example 62, 3-[1-(3-methoxyphenyl)-2,2-dioxido-1H-2,4,1-benzodithiazin-3-yl]-N-methylpropan-1-amine Hydrochloride] |
| 0.471 µM | CNCCCC1Sc2ccccc2N(c2ccc(F)c(Cl)c2)S1(=O)=O (stereo not drawn) [Example 68, 3-[1-(3-chloro-4-fluorophenyl)-2,2-dioxido-1H-2,4,1-benzodithiazin-3-yl]-N-methylpropan-1-amine Hydrochloride] |
| 0.145 µM | CNCCC[C@H]1Cc2cc(F)ccc2N(c2ccccc2Cl)S1(=O)=O (single isomer, unassigned) [Example 158] |
| 0.122 µM | CNCCCC1Sc2ccccc2N(c2ccccc2)S1(=O)=O (stereo not drawn) [Example 59, 3-(2,2-dioxido-1-phenyl-1H-2,4,1-benzodithiazin-3-yl)-N-methylpropan-1-amine Hydrochloride] |
| 0.189 µM | CNCCCC1Cc2cc(F)ccc2N(c2ccccc2C#N)S1(=O)=O (racemic) [Example 163, 2-{6-fluoro-3-[3-(methylamino)propyl]-2,2-dioxido-3,4-dihydro-1H-2,1-benzothiazin-1-yl}benzonitrile] |

Same assay, conditions: MDCK-Net6 cells, 6,000 cells/well; Conc 6000 nM (6 μM); read-out: Procedure B hNET uptake (% inhibition)

| inhibition at 6 µM | Structure (SMILES) |
| --- | --- |
| 48% | O=S1(=O)C(CCCNC2CCCC2)Oc2ccccc2N1c1ccccc1 (stereo not drawn) [Example 42, N-[3-(2,2-dioxido-1-phenyl-1H-4,2,1-benzoxathiazin-3-yl)propyl]cyclopentanamine] |
| 33% | O=S1(=O)C(CCN2CCCNCC2)Oc2ccccc2N1c1ccccc1 (stereo not drawn) [Example 77, 3-[2-(1,4-diazepan-1-yl)ethyl]-1-phenyl-1H-4,2,1-benzoxathiazine-2,2-dioxide Dihydrochloride] |
| 41% | CCN(CCO)CCCC1Oc2ccccc2N(c2ccccc2)S1(=O)=O (stereo not drawn) [Example 83, 2-{[3-(2,2-dioxido-1-phenyl-1H-4,2,1-benzoxathiazin-3-yl)propyl](ethyl)amino}ethanol hydrochloride] |
| 50% | O=S1(=O)C(CCCNC2CCC2)Oc2ccccc2N1c1ccccc1 (stereo not drawn) [Example 41, N-[3-(2,2-dioxido-1-phenyl-1H-4,2,1-benzoxathiazin-3-yl)propyl]cyclobutanamine] |
| 63% | CC(C)CNCCCC1Oc2ccccc2N(c2ccccc2)S1(=O)=O (stereo not drawn) [Example 38, N-[3-(2,2-dioxido-1-phenyl-1H-4,2,1-benzoxathiazin-3-yl)propyl]-2-methylpropan-1-amine] |

The compounds below were run against T1, human hNET (assay: Functional norepinephrine reuptake assay, Procedure A (50,000 cells/well)). Settings: MDCK-Net6 cells, 50,000 cells/well, 16 nM 3H-norepinephrine; read-out: Procecedure A NE Uptake IC50.
Type: cell-based
Protocol: For screening, 25 μl aliquots of compound solution at a 1 μM or 10 μM final concentration was delivered directly to cells.
For IC50 determinations, stock compounds were prepared at 10 mM from powder. The stock solution was diluted according to compound testing range. Typically, the compound testing range was from 6 nM to 6 μM by half log dilutions. On the day of assay, 25 μl of compound solution at the specified concentrations were added to the plates containing cells. A DMSO stock of desipramine was prepared at 10 mM in DMSO and diluted for a final concentration of 20 μM to determine the non-specific reuptake.
MDCK-Net6 cells, stably transfected with human hNET (Pacholczyk, 1991), were maintained in growth media [high glucose DMEM (Gibco Cat. 11995), 10% FBS (dialyzed, heat-inactivated, Sigma, dialysed, heat inactivated, Lot# K0922 or equivalent) 1xPen/Strep, and 500 μg/ml G418 (Gibco Cat. 10131)]. Cells were plated at 300,000/T75 flask and cells split twice weekly.
Cells were plated at 50,000 cells/well (Procedure A) or 6,000 cells/well (Procedure B) on day 1 in BD Falcon Microtest 96-well sterile cell culture plates, Optilux White/Clear Bottom TC plate (VWR; # 62406-466 or equivalent) in growth media and maintained in a cell incubator (37° C., 5% CO2). On Day 2, cells were removed from the cell incubator and the growth media is replaced by 200 μl of assay buffer (25 mm HEPES 120 mM NaCL; 5 mM KCl; 2.5 mM CaCl2; 1.2 mM MgSO4; 2 mg/ml glucose (pH 7.4, 37° C.)) containing 0.2 mg/ml ascorbic acid and 1 μM parglyine. For screening, 25 μl of compound in 4% DMSO was added directly to each well and the plate was incubated for 5 minutes (37° C.). To initiate the norepinephrine reuptake, 16 nM (final concentration) of ^3H norepinephrine (specific activity; 40-80 Ci/mmol) in assay buffer was delivered in 25 μl aliquots to each well, and the plates were incubated for 5 min at 37° C. The reaction is aspirated from the plate and the cells washed with 250 μl of 50 mM Tris Buffer (4° C.). The plates were left to dry for 1 hour. The cells were lysed using 0.25 M NaOH solution then placed on a shake table and vigorously shaken for 10 minutes. After cell lysis, 100 μl of Microscint 20 (PerkinElmer; #87-051101) was added to the plates and the plates were sealed with film tape and replaced on the shake table for a minimum of 10 minutes. The plates were counted in a TopCount counter (PerkinElmer).
For screening single point determinations, each compound plate contained at least 3 control wells (maximum NE reuptake determinant) and 3 non-specific wells determined by adding 20 μM of desipramine (minimum NE reuptake determinant). Determination of active compounds was calculated using a Microsoft Excel spread sheet applying the following formula:
% inhibition=[1−((mean cpm test compound wells−mean cpm non-specific wells)/(mean cpm control wells−mean cpm non-specific wells))]×100
For IC50 determination, raw cpm values were generated in a data file from the TopCount counter. The data was organized using the Microsoft Excel and transferred into PRIZM graphing and statistical program, which calculated the estimated IC50 value. Calculation of IC50 values was made using non-linear regression analysis with a sigmoidal dose response with variable slope. The statistical program used wells containing ^3H norepinephrine only as the maximal NE reuptake determinant and wells containing ^3H norepinephrine plus 20 μM desipramine (AHR-9543) as the minimal NE reuptake determinant (non-specific determinant). Estimation of the IC50 value was completed on a log scale and the line was fit between the maximal and minimal NE reuptake values.

| IC50 | Structure (SMILES) |
| --- | --- |
| 0.0331 µM | CNCCCC1Oc2ccccc2N(c2ccccc2)S1(=O)=O (stereo not drawn) [Example 12, 3-(2,2-dioxido-1-phenyl-1H-4,2,1-benzoxathiazin-3-yl)-N-methylpropan-1-amine] |
| 1.88 µM | CCNCCCC1Cc2ccccc2N(c2ccccc2)S1(=O)=O (stereo not drawn) [Example 4, 3-(2,2-dioxido-1-phenyl-3,4-dihydro-1H-2,1-benzothiazin-3-yl)-N-ethylpropan-1-amine] |
| 0.233 µM | NCCCC1Cc2ccccc2N(c2ccccc2)S1(=O)=O (stereo not drawn) [Example 2, 3-(2,2-dioxido-1-phenyl-3,4-dihydro-1H-2,1-benzothiazin-3-yl)propan-1-amine] |
| 0.484 µM | CN(C)CCCC1Cc2ccccc2N(c2ccccc2)S1(=O)=O (stereo not drawn) [Example 3, 3-(2,2-dioxido-1-phenyl-3,4-dihydro-1H-2,1-benzothiazin-3-yl)-N,N dimethylpropan-1-amine] |
| 0.0335 µM | CNCCCC1Cc2ccccc2N(c2ccccc2)S1(=O)=O (stereo not drawn) [Example 1, 3-(2,2-dioxido-1-phenyl-3,4-dihydro-1H-2,1-benzothiazin-3-yl)-N-methylpropan-1-amine] |
| 0.166 µM | CC(C)NCCCC1Cc2ccccc2N(c2ccccc2)S1(=O)=O (stereo not drawn) [Example 5, 3-(2,2-dioxido-1-phenyl-3,4-dihydro-1H-2,1-benzothiazin-3-yl)-N-isopropyl propan-1-amine] |
| 0.133 µM | O=S1(=O)C(CCCN2CCCC2)Cc2ccccc2N1c1ccccc1 (stereo not drawn) [Example 6, 1-phenyl-3-(3-pyrrolidin-1-ylpropyl)-3,4-dihydro-1H-2,1-benzothiazine 2,2-dioxide] |
| 3.01 µM | O=S1(=O)C(CCCNCc2ccccc2)Cc2ccccc2N1c1ccccc1 (stereo not drawn) [Example 7, N-benzyl-3-(2,2-dioxido-1-phenyl-3,4-dihydro-1H-2,1-benzothiazin-3-yl)propan-1-amine] |
| 0.113 µM | CNCCC[C@]1(C)Cc2ccccc2N(c2ccccc2)S1(=O)=O (single isomer, unassigned) [Example 9] |

Same assay, conditions: MDCK-Net6 cells, 50,000 cells/well; Conc 2000 nM

| Procedure A [3H] NE Uptake Displacement % | Structure (SMILES) |
| --- | --- |
| 17% | O=S1(=O)C(CCCNC2CCCCC2)Cc2ccccc2N1c1ccccc1 (stereo not drawn) [Example 8, N-[3-(2,2-dioxido-1-phenyl-3,4-dihydro-1H-2,1-benzothiazin-3-yl)propyl]cyclohexanamine] |
